Measurements: the NIST ThermoML archive (doi:10.1016/j.jct.2015.11.010)
± gives the expanded uncertainty stated by the source.

What was measured:
[1] = Crystal; for mass density: 101.33 kPa, X-ray diffraction
[2] = molar enthalpy of vaporization or sublimation; conditions: 298.15 K; Crystal; Static calorimetry
[3] = molar heat capacity at constant pressure; conditions: 101.33 kPa, Crystal, Small sample (50 mg) DSC
[4] = Molar enthalpy of transition or fusion; conditions: Crystal; DSC

| Structure (SMILES) | mass density ([1]; 150 K) | molar enthalpy [2] | mass density ([1]; 296 K) | Triple point temperature ([1]; DSC) | molar heat capacity at constant pressure ([3]; 298.15 K) | molar heat capacity at constant pressure ([3]; 303.15 K) | molar heat capacity at constant pressure ([3]; 308.15 K) | molar heat capacity at constant pressure ([3]; 313.15 K) | molar heat capacity at constant pressure ([3]; 318.15 K) | molar heat capacity at constant pressure ([3]; 323.15 K) | molar heat capacity at constant pressure ([3]; 328.15 K) | molar heat capacity at constant pressure ([3]; 333.15 K) | Molar enthalpy of transition or fusion [4] |
| --- | --- | --- | --- | --- | --- | --- | --- | --- | --- | --- | --- | --- | --- |
| O.Sc1ncc[nH]1.Sc1ncc[nH]1 [2-mercaptoimidazole hemihydrate] | 1489.4 ± 7.3 kg/m3 | – | – | – | – | – | – | – | – | – | – | – | – |
| Sc1ncc[nH]1 [2-mercaptoimidazole] | – | 27.3 ± 0.335 kcal/mol | 1424.1 ± 7 kg/m3 | 503.5 ± 0.8 K | 112 ± 7.7 J/K/mol | 112.4 ± 7.9 J/K/mol | 112.9 ± 7.9 J/K/mol | 112.6 ± 8.9 J/K/mol | 113.4 ± 8.6 J/K/mol | 114.3 ± 8.6 J/K/mol | 115.3 ± 8.6 J/K/mol | 116.5 ± 8.6 J/K/mol | 4.18 ± 0.115 kcal/mol |
